Among the data in patent US20050282818A1, “Ubiquitin ligase inhibitors” (Rigel Pharmaceuticals, Inc., priority 2004, published 2005) are IC50 values, retold here.

A word on the pIC50: it is the IC50 on a negative log10 scale, so that one unit is a factor of ten. High values mean a low IC50, low ones a high IC50.

pIC50: −log10 of the molar value.

One assay deals with APC11/APC2 (Homo sapiens, UniProt Q9NYG5+Q9UJX6). The experiment in a line: APC-11/APC-2 ligase assay (APC auto ubiquitination). It is filed as biochemical. Particulars: APC assay. As for the experimental part:
For the assays described below, the TRAF6/Uev1A/UBC13 assay is the biochemical plate-based assay of TRAF6 ligase activity using Ubc13 as the E2 enzyme. The gel-based assay is the biochemical solution-based TRAF6 ligase assay (by SDS-PAGE and Western blot) to confirm the plate-based ELISA assay. The APC assay is an assay which is another E3 ligase (APC2/APC11) biochemical assay.
E3 (His APC11/APC2— “APC”) auto ubiquitination was measured as described in U.S. patent application Ser. No. 09/826,312 (Publication No. U.S. 2002 0042083 A1), which is incorporated by reference in its entirety. Details of the protocol are described below. Activity in the presence of the compound was determined relative to a parallel control in which only DMSO was added. Values of the IC50 were typically determined using 6 or 8 different concentrations of the compound, although as few as 2 concentrations may be used to approximate the IC50 value.
Nickel coated 96 well plates (Pierce 15242) were blocked for 1 hour with 100 μl of blocking buffer at room temperature. The plates were washed 4 times with 225 μl of 1 […]PBS and 80 μl of the reaction buffer were added that contained 100 ng/well of Flag ubiquitin. To this, 10 μl of the test compound diluted in DMSO were added. After the test compound was added, 10 μl of E1 (human), E2 (Ubch5c), and APC in Protein Buffer was added to obtain a final concentration of 5 ng/well of E1, 20 ng/well of E2 and 100 ng/well of APC. The plates were shaken for 10 minutes and incubated at room temperature for 1 hour. After incubation, the plates were washed 4 times with 225 μl of 1×PBS and 100 μl/well of Antibody Mix were added to each well. The plates were incubated at room temperature for another hour after which they were washed 4 times with 225 μl of 1×PBS and 100 μl/well of Lumino substrate were added to each well. The luminescence was measured by using a BMG luminescence microplate reader. The Blocking Buffer (1% Casein in 1×PBS) was stored at 4° C. until use.
The reaction buffer consisted of 62.5 mM Tris pH 7.6 (Trizma Base—Sigma T 8524), 3 mM MgCl2 (Magnesium Chloride—Sigma M 2393), 1 mM DTT (Sigma D 9779), 2.5 mM ATP (Roche Boehringer Mann Corp. 635 316), 100 ng/well of Flag ubiquitin, 0.1% BSA (Sigma A 7906), and 0.05% Tween 20 (Sigma P 7949).
The Protein Buffer consisted of 20 mM Tris pH 7.6, 10% glycerol (Sigma G 5516) and 1 mM DTT.
The antibody mix consisted of 0.25% BSA (Sigma A 7906) in 1×PBS, 1/50,000 anti Flag (Sigma F 3165), 1/100,000 of anti Mouse IgG HRP (Jackson Imrunoresearch #115 035 146).
The substrate mix consisted of SuperSignal Substrate from Pierce (catalog number 37070ZZ) and was prepared by mixing 100 ml of the peroxide solution, 100 ml of the enhancer solution and 100 ml of Milli Q® water.

The target of a further assay is T1, TRAF6/Uev1A/Ubc13 (Homo sapiens, UniProt Q9Y4K3).
T1 sequence (Q9Y4K3 1-522): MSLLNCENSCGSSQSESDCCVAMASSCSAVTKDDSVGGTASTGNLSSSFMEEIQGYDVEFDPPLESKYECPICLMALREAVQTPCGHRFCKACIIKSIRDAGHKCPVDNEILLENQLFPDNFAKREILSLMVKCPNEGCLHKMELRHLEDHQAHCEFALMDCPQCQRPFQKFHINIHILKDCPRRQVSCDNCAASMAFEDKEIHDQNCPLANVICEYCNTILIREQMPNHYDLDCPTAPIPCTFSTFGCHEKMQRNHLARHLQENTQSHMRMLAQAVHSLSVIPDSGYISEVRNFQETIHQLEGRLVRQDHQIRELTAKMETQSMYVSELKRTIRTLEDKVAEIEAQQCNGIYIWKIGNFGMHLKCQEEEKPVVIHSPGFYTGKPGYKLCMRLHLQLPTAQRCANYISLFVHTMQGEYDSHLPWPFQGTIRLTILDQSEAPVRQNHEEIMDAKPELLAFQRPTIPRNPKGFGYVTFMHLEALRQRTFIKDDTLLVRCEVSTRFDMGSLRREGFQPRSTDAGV
The experiment in a line: TRAF6/Uev1A/Ubc13 plate-based ubiquitin ligase assay. It is filed as biochemical. Put shortly:
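Ligase activity was read as luminescence from anti-Flag/HRP detection of Flag-ubiquitin bound to casein-blocked Ni-plates alongside His-ubiquitin after a 1 h room-temperature reaction. Buffer: 62.5 mM Tris pH 7.5, 6.25 mM MgCl2, 1.0 mM DTT, 2 μM ATP; E1, Uev1a/Ubc13 and TRAF6 added last to start. IC50s derived across compound concentrations.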

Assay [1] has as its system ICAM-1 expression in A549 cells. The experiment in a line: ICAM assay (IL-1 induced ICAM-1/CD54 expression in A549 cells). Particulars: Homo sapiens, A549, ICAM assay. It is filed as cell-based, human. An excerpt: The expression of intercellular adhesion molecule (ICAM)-1 in endothelial cells is pivotal in supporting lymphocyte migration across the vascular endothelium. TNF/IL-1 induces the NF-kB pathway in which NF-kB acts as a transcription factor and activation of NF-kB induces ICAM expression. IkB inhibits NF-KB by binding to it and retaining NF-kB in the cytoplasm. Upon cytokine stimulation, several signaling molecule including TRAF6, IKKs, and TAK1 are activated which lead to the phosphorylation of IkB. Phosphorylated IkB is then ubiquitinated by the SCF complex and degraded by proteasome, thereby releasing NF-kB to translocate into the nucleus. In the nucleus, NF-kB binds to DNA and activates transcription of various genes that are involved in inflammation, cell survival, and apoptosis. The ICAM assay is a primary assay for HTS as well as a cell based assay for TRAF6 inhibitors.
The following materials are used 96-well plates; F12K complete medium that includes 10% FBS and 1% P/S (penicillin/streptomycin); 1×PBS; 5 ug/ml IL-1, Human CD54 (CALTAG Laboratory, Cat#MHCD5400-4); anti-mouse-IgG (Jackson Lab, Cat#115-035 146); and A549 cells.
Procedure. 10,000 A549 cells/well were seeded in 100 μl F12K complete medium in a 96-well white plate. The seeded plate was incubate at 37° C. incubator in 5% CO2 overnight. After the overnight incubation, 4 μl of diluted test compound was added and incubated for 1 hour at 37° C. After the 1 hour incubation, 4 μl of 25 ng/ml IL-1 was added to each well and the cells were stimulated at 37° C. for 4 hours.
After stimulation, the cells were stained with CD54 (1:1000 diluted with medium) and anti-mouse IgG (1:1100 diluted with medium) for 1 hour. Subsequently, the medium was removed and each well was washed with 200 μl of PBS three times. Detection of activity was performed by addition of 100 μl/well of lumino substrate.

APC11/APC2, sequence (Q9NYG5 whole entry): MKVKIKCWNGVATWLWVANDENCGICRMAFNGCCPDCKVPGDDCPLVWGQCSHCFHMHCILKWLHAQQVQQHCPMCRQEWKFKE
APC11/APC2, sequence (Q9UJX6 whole entry): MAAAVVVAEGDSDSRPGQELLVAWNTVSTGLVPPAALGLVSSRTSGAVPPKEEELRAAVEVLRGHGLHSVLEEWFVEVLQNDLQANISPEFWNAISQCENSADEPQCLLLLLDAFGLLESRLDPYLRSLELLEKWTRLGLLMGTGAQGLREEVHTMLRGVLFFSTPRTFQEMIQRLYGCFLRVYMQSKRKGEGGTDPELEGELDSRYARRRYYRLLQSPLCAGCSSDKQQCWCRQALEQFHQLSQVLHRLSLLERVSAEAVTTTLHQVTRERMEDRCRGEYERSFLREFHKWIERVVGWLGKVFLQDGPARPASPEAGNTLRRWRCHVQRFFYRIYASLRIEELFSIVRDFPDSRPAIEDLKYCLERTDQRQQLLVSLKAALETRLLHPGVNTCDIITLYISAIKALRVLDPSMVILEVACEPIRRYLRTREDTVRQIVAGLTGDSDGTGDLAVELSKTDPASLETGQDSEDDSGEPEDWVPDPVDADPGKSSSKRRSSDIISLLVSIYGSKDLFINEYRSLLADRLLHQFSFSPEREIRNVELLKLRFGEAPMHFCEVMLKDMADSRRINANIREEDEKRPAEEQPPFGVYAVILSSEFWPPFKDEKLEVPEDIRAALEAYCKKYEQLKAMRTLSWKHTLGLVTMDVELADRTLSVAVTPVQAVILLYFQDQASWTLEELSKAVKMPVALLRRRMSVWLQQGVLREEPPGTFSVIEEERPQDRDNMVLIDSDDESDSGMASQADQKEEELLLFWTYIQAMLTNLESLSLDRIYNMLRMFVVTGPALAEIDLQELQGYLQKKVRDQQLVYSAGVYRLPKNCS

Regarding `O=[N+]([O-])c1ccc(N2CCN(c3cnccn3)CC2)c2nonc12` [compound 84], the negative logarithm of the IC50 (pIC50) against APC11/APC2 and at TRAF6/Uev1A/Ubc13 was 4.70 to 6.00 throughout.

In the case of `O=[N+]([O-])c1ccc(Sc2cccc(Cl)c2)c2nonc12` [compound 149, 4-[(3-chlorophenyl)thio]-7-nitro-2,1,3-benzoxadiazole], the negative-log IC50 (pIC50) on APC11/APC2 and at TRAF6/Uev1A/Ubc13 was 4.70 to 6.00 in each case.

As to `Cc1ccc(Sc2ccc([N+](=O)[O-])c3nonc23)cc1` [compound 157, 4-[(4-methylphenyl)thio]-7-nitro-2,1,3-benzoxadiazole], the pIC50 on APC11/APC2 and against TRAF6/Uev1A/Ubc13 was 4.70 to 6.00 in each case.

Regarding `N#Cc1cccnc1N1CCN(S(=O)(=O)c2c(Sc3cccc4cccnc34)ccc3nonc23)CC1` [compound 183, 2-(4-{[5-(quinolin-8-ylthio)-2,1,3-benzoxadiazol-4-yl]sulfonyl}piperazin-1-yl)nicotinonitrile], the pIC50 at APC11/APC2 and at TRAF6/Uev1A/Ubc13 was 4.70 to 6.00 throughout.

Consider `O=c1[nH]c2ccccc2n1C1CCN(S(=O)(=O)c2ccc(Sc3cccc4cccnc34)c3nonc23)CC1` [compound 190, 1-(1-{[7-(quinolin-8-ylthio)-2,1,3-benzoxadiazol-4-yl]sulfonyl}piperidin-4-yl)-1,3-dihydro-2H-benzimidazol-2-one], for which the negative logarithm of the IC50 (pIC50) against APC11/APC2 and against TRAF6/Uev1A/Ubc13 was 4.70 to 6.00 each time.

`O=[N+]([O-])c1ccc(-c2cc(F)cc(F)c2)c2nonc12` [compound 308, 4-[(3,5-Difluoro)phenyl]-7-nitro-2,1,3-benzoxadiazole]: the results for the pIC50 (against APC11/APC2; in assay [1]; at TRAF6/Uev1A/Ubc13) were 4.70 to 6.00, 4.70 to 6.00 and at most 4.70, respectively.

Take `O=[N+]([O-])c1ccc(-c2ccc(C(F)(F)F)cc2)c2nonc12` [compound 311, 4-Nitro-7-[4-(trifluoromethyl)phenyl]-2,1,3-benzoxadiazole]: the negative-log IC50 (pIC50) (against APC11/APC2; in assay [1]; against TRAF6/Uev1A/Ubc13) was 4.70 to 6.00 in each case.

In the case of `O=[N+]([O-])c1ccc(-c2ccc(C(F)(F)F)cc2C(F)(F)F)c2nonc12` [compound 312, 4-[2,4-Bis(trifluoromethyl)phenyl]-7-nitro-2,1,3-benzoxadiazole], the pIC50 on APC11/APC2 was 4.70 to 6.00; in assay [1], at most 4.70; against TRAF6/Uev1A/Ubc13, 4.70 to 6.00.

As to `O=C1OC2(CCN(S(=O)(=O)c3ccc(Cl)c4nonc34)CC2)c2ccccc21` [compound 332, 1′-{[7-chloro-(2,1,3-benzoxadiazol-4-yl)]sulfonyl}-3H-spiro[2-benzofuran-1,4′-piperidin]-3-one], the pIC50 is 4.70 to 6.00 against APC11/APC2, at most 4.70 in assay [1] and at most 4.70 at TRAF6/Uev1A/Ubc13.

With `O=S(=O)(c1ccc(Sc2cccc3ccccc23)c2nonc12)N1CCC2(CC1)OCc1ccccc12` [compound 334, 1′-{(7-[naphth-1-ylthio]-2,1,3-benzoxadiazol-4-yl)}sulfonyl-3H-spiro[2-benzofuran-1,4′-piperidine]], the pIC50 against APC11/APC2 is at most 4.70; in assay [1], 4.70 to 6.00; against TRAF6/Uev1A/Ubc13, at most 4.70.

With `COC(=O)c1ccc(NS(=O)(=O)c2ccc(Sc3ccc(O)cc3)c3nonc23)cc1` [compound 335, methyl 4-{[(7-{[4-hydroxyphenyl]thio}-2,1,3-benzoxadiazol-4-yl)sulfonyl]amino}benzoate], the negative-log IC50 (pIC50) (against APC11/APC2; in assay [1]; at TRAF6/Uev1A/Ubc13) was at most 4.70 throughout.

Consider `Clc1cc(Sc2cccc3cccnc23)cc2nonc12` [compound 336, 8-[(4-chloro-2,1,3-benzoxadiazol-6-yl)thio]quinoline], for which the pIC50 (at APC11/APC2; in assay [1]; against TRAF6/Uev1A/Ubc13) was at most 4.70 in each case.

Take `O=C1OC2(CCN(S(=O)(=O)c3c(Cl)ccc4nonc34)CC2)c2ccccc21` [compound 337, 1′-{[5-chloro-(2,1,3-benzoxadiazol-4-yl)]sulfonyl}-3H-spiro[2-benzofuran-1,4′-piperidin]-3-one]: the results for the pIC50 (on APC11/APC2; in assay [1]; on TRAF6/Uev1A/Ubc13) were at most 4.70, over 6.00 and at most 4.70, respectively.

For the compound `O=S(=O)(Nc1ccccc1F)c1ccc(Cl)c2nonc12` [compound 345, 7-chloro-N-(2-fluorophenyl)-2,1,3-benzoxadiazole-4-sulfonamide], the pIC50 at APC11/APC2 is at most 4.70; in assay [1], 4.70 to 6.00; against TRAF6/Uev1A/Ubc13 it was at most 4.70.

On to `O=S(=O)(Nc1ccccc1F)c1ccc(Nc2ccccc2F)c2nonc12` [compound 346, N-(2-fluorophenyl)-7-(2-fluorophenylamino)-2,1,3-benzoxadiazole-4-sulfonamide], for which the figures for the pIC50 (against APC11/APC2; in assay [1]; at TRAF6/Uev1A/Ubc13) were 4.70 to 6.00, at most 4.70 and at most 4.70, respectively.

For the compound `CC(C)c1ccccc1NS(=O)(=O)c1ccc(Cl)c2nonc12` [compound 347, 7-chloro-N-(2-isopropylphenyl)-2,1,3-benzoxadiazole-4-sulfonamide], the pIC50 was at most 4.70 against APC11/APC2, 4.70 to 6.00 in assay [1] and at most 4.70 against TRAF6/Uev1A/Ubc13.

Consider `COc1cc(NS(=O)(=O)c2ccc(F)c3nonc23)c(OC)cc1Cl` [compound 348, N-(4-chloro-2,5-dimethoxyphenyl)-7-fluoro-2,1,3-benzoxadiazole-4-sulfonamide], for which the results for the negative-log IC50 (pIC50) (on APC11/APC2; in assay [1]; against TRAF6/Uev1A/Ubc13) were at most 4.70, 4.70 to 6.00 and at most 4.70, respectively.
